These results are taken from PMC9260081, “Design, Synthesis, and Evaluation of Anticonvulsant Activities of New Triazolopyrimidine Derivatives” (Frontiers in Chemistry, 2022).

For one data set, the system named is MES-induced seizures. The data set is described as follows: Maximal electroshock seizure (MES) test. It counts as in vivo, mice. The following applies: for minimal effective dose / ED50: Mus musculus, ip; for minimal effective dose: dosages 30, 100, 300 mg/kg, read-out: MES screening, minimum dose whereby bioactivity was demonstrated in half or more of the mice; for ED50: read-out: ED50 MES; for PI MES, protective index (TD50/ED50): TD50 rotarod / ED50 MES, mice i.p. Here is the method: (§1) Male Kunming mice with weights from 18 to 22 g were used in all the pharmacological experiments. The mice were housed in the standard cages with 10 each, where a controlled temperature (25°C ± 2°C) with a 12 h light/dark cycle was maintained. All animals had free access to food and water. All experiments and procedures involving animals were carried out according to the Guide for the Care and Use of Laboratory Animals (National Academies Press, Washington, D.C., United States). Approval from the local medical ethical committee was obtained before the experiment.
In the MES test, mice were subjected to ear stimulation using a 0.2 s 60-Hz 50-mA alternating current to elicit seizures. Tonic hind limb extension was considered as the seizure occurring, and the vanishing of tonic hind limb extension indicates the protection against the MES-induced seizures. Mice were injected intraperitoneally with test compounds at doses of 300, 100, and 30 mg/kg to evaluate their general anticonvulsant activity. Half and 4 h intervals were chosen to test the anti-MES activity. […] A series of doses of the tested compounds were injected into the mice with 10 in one group.
Background: Protection in the maximal electroshock model is a classic sign of anticonvulsant action.

The subject of another data set is PTZ-induced seizures. The data set is described as follows: Subcutaneous pentylenetetrazole (PTZ) test. It counts as in vivo, mice. To be noted: ip; for minimal effective dose / ED50: Mus musculus; for minimal effective dose: dosages 30, 100, 300 mg/kg, read-out: PTZ screening, minimum dose whereby bioactivity was demonstrated in half or more of the mice; for ED50: read-out: ED50 scPTZ; for PI scPTZ, protective index (TD50/ED50): male, Kunming, mouse, in vivo. Here is the method:
as §1
In the PTZ test, mice were subcutaneously administered with PTZ at the dose of 85 mg/kg. At this dose, mice can be elicited a threshold seizure characterized by an episode of clonic spasms and tonic spasms. After being treated with test compounds at doses of 300, 100, and 30 mg/kg, the mice were considered protected if a single episode of clonic spasms of more than 5 s duration was not obtained. The quantitative anticonvulsant activity (ED50) in the PTZ model was determined and calculated with the same method described in the MES test.

Data set [1] has as its system ability to maintain equilibrium on rotating rod. The data set is described as follows: Neurotoxicity screening (rotarod test). The format is in vivo. To be noted: i.p.; for NT screening (rotarod), minimum neurotoxic dose in half or more of the mice: dosages 30, 100, 300 mg/kg. Here is the method: as §1
(§2) The rotarod test was used to evaluate the neurotoxicity of the synthesized compounds. Before the formal experiments, mice were trained to climb on a rotating rod of diameter 3.2 cm with the rotation speed of 10 rpm. Test compounds in the three doses were intraperitoneally injected into the trained mice. […] The rough neurotoxic dose was obtained in which mice cannot maintain equilibrium on the rod for at least 1 min. The quantitative neurotoxic dose (TD50) of the test compounds was measured and calculated with the same method described in the MES test.
Background: Falling from the rotarod earlier than controls is read as motor impairment.

Data set [2] is described as follows: Neurotoxicity screening (rotarod test). To be noted: male, Kunming, mouse, in vivo, ip; rotarod, mice; 95% confidence interval in brackets. The format is in vivo. Here is the method:
as §1, §2

The next data set has as its target GABAA BZD receptor. The data set can be described thus: Radioligand receptor binding assay ([3H]-flumazenil competition). The following applies: rat brain membranes.
Setting [3] is: mice, 95% confidence interval in brackets.

pKi: −log10 of the molar value. Like-named read-outs stand apart in the source and are kept apart here. Where only a bound is given, the exact number is not on record here.

For `Brc1ccc(-c2ccnc3ccnn23)cc1` [Compound 4f, 7-(4-Bromophenyl)pyrazolo[1,5-a]pyrimidine], the minimal effective dose was more than 300 mg/kg in the data set with MES-induced seizures (mice, 0.5 h after injection); more than 300 mg/kg with MES-induced seizures (mice, 4 h after injection); more than 300 mg/kg with PTZ-induced seizures (mice, 0.5 h after injection); more than 300 mg/kg in the data set with PTZ-induced seizures (mice, 4 h after injection). Also, the “NT screening (rotarod), minimum neurotoxic dose in half or more of the mice” value (from here on “NT screening (rotarod)”) in data set [1] (0.5 h after injection) is “— (A dash indicates the absence of anticonvulsant activity and neurotoxicity at the maximum dose administered (300 mg/kg))”; in data set [1] (4 h after injection) it was “— (A dash indicates the absence of anticonvulsant activity and neurotoxicity at the maximum dose administered (300 mg/kg))”.

`O=[N+]([O-])c1ccc(-c2ccnc3ccnn23)cc1` [Compound 4g, 7-(4-Nitrophenyl)pyrazolo[1,5-a]pyrimidine]: the minimal effective dose in the data set on MES-induced seizures (mice, 0.5 h after injection) was more than 300 mg/kg; in the data set with MES-induced seizures (mice, 4 h after injection) it was more than 300 mg/kg; in the data set with PTZ-induced seizures (mice, 0.5 h after injection), more than 300 mg/kg; in the data set with PTZ-induced seizures (mice, 4 h after injection) it was more than 300 mg/kg. In addition, the “NT screening (rotarod)” value is “— (A dash indicates the absence of anticonvulsant activity and neurotoxicity at the maximum dose administered (300 mg/kg))” in data set [1] (0.5 h after injection); “— (A dash indicates the absence of anticonvulsant activity and neurotoxicity at the maximum dose administered (300 mg/kg))” in data set [1] (4 h after injection).

`Cc1ccc(-c2ccnc3ccnn23)cc1` [Compound 4h, 7-(P-tolyl)pyrazolo[1,5-a]pyrimidine]: the minimal effective dose was more than 300 mg/kg in the data set with MES-induced seizures (mice, 0.5 h after injection); more than 300 mg/kg in the data set on MES-induced seizures (mice, 4 h after injection); 300 mg/kg with PTZ-induced seizures (mice, 0.5 h after injection); more than 300 mg/kg in the data set on PTZ-induced seizures (mice, 4 h after injection). For the same compound, the “NT screening (rotarod)” value in data set [1] (0.5 h after injection) was “— (A dash indicates the absence of anticonvulsant activity and neurotoxicity at the maximum dose administered (300 mg/kg))”; in data set [1] (4 h after injection) it was “— (A dash indicates the absence of anticonvulsant activity and neurotoxicity at the maximum dose administered (300 mg/kg))”.

Turning to `COc1ccc(-c2ccnc3ccnn23)cc1` [Compound 4i, 7-(4-Methoxyphenyl)pyrazolo[1,5-a]pyrimidine], the minimal effective dose with MES-induced seizures (mice, 0.5 h after injection) was more than 300 mg/kg; with MES-induced seizures (mice, 4 h after injection), more than 300 mg/kg; in the data set on PTZ-induced seizures (mice, 0.5 h after injection) it was 300 mg/kg; with PTZ-induced seizures (mice, 4 h after injection) it was more than 300 mg/kg. The “NT screening (rotarod)” value in data set [1] (0.5 h after injection) was “— (A dash indicates the absence of anticonvulsant activity and neurotoxicity at the maximum dose administered (300 mg/kg))”; in data set [1] (4 h after injection), “— (A dash indicates the absence of anticonvulsant activity and neurotoxicity at the maximum dose administered (300 mg/kg))”.

Turning to `CCCOc1ccc(-c2ccnc3ncnn23)cc1` [Compound 6a, 7-(4-Propoxyphenyl)-[1,2,4]triazolo[1,5-a]pyrimidine], the minimal effective dose is 300 mg/kg with MES-induced seizures (mice, 0.5 h after injection); more than 300 mg/kg in the data set with MES-induced seizures (mice, 4 h after injection); 300 mg/kg in the data set with PTZ-induced seizures (mice, 0.5 h after injection); more than 300 mg/kg in the data set with PTZ-induced seizures (mice, 4 h after injection). The “NT screening (rotarod)” value was “— (A dash indicates the absence of anticonvulsant activity and neurotoxicity at the maximum dose administered (300 mg/kg))” in data set [1] (0.5 h after injection); “— (A dash indicates the absence of anticonvulsant activity and neurotoxicity at the maximum dose administered (300 mg/kg))” in data set [1] (4 h after injection).

On to `CCCCOc1ccc(-c2ccnc3ncnn23)cc1` [Compound 6b, 7-(4-Butoxyphenyl)-[1,2,4]triazolo[1,5-a]pyrimidine], for which the minimal effective dose in the data set with MES-induced seizures (mice, 0.5 h after injection) is 100 mg/kg; in the data set on MES-induced seizures (mice, 4 h after injection) it was more than 300 mg/kg; in the data set with PTZ-induced seizures (mice, 0.5 h after injection), 300 mg/kg; with PTZ-induced seizures (mice, 4 h after injection) it was more than 300 mg/kg. Also, the “NT screening (rotarod)” value in data set [1] (0.5 h after injection) is “— (A dash indicates the absence of anticonvulsant activity and neurotoxicity at the maximum dose administered (300 mg/kg))”; in data set [1] (4 h after injection), “— (A dash indicates the absence of anticonvulsant activity and neurotoxicity at the maximum dose administered (300 mg/kg))”.

For orientation: ED50 means the dose that gives a 50% effect, or the effect in half of the subjects. `CCCCCOc1ccc(-c2ccnc3ncnn23)cc1` [Compound 6c, 7-(4-(Pentyloxy)phenyl)-[1,2,4]triazolo[1,5-a]pyrimidine]: the minimal effective dose is 30 mg/kg in the data set on MES-induced seizures (mice, 0.5 h after injection); 300 mg/kg with MES-induced seizures (mice, 4 h after injection); 30 mg/kg with PTZ-induced seizures (mice, 0.5 h after injection); more than 300 mg/kg in the data set with PTZ-induced seizures (mice, 4 h after injection). The figures for the ED50 in the data set on MES-induced seizures (setting [3]) and with PTZ-induced seizures (setting [3]) were 25.3 mg/kg and 23.7 mg/kg, respectively. In addition, the “PI MES, protective index (TD50/ED50)” value with MES-induced seizures is 15.0. For the same compound, the “PI scPTZ, protective index (TD50/ED50)” value in the data set with PTZ-induced seizures turned out to be 16.0. In addition, the TD50 at 30 min in data set [2] is 380 mg/kg. In addition, the “NT screening (rotarod)” value was “— (A dash indicates the absence of anticonvulsant activity and neurotoxicity at the maximum dose administered (300 mg/kg))” in data set [1] (0.5 h after injection); “— (A dash indicates the absence of anticonvulsant activity and neurotoxicity at the maximum dose administered (300 mg/kg))” in data set [1] (4 h after injection).

Consider `c1ccc(COc2ccc(-c3ccnc4ncnn34)cc2)cc1` [Compound 6e, 7-(4-(Benzyloxy)phenyl)-[1,2,4]triazolo[1,5-a]pyrimidine], for which the minimal effective dose in the data set with MES-induced seizures (mice, 0.5 h after injection) is 30 mg/kg; in the data set with MES-induced seizures (mice, 4 h after injection), 300 mg/kg; in the data set on PTZ-induced seizures (mice, 0.5 h after injection) it was 30 mg/kg; in the data set on PTZ-induced seizures (mice, 4 h after injection), more than 300 mg/kg. Moreover, the ED50 was 38 mg/kg in the data set with MES-induced seizures (setting [3]) and 28.4 mg/kg in the data set with PTZ-induced seizures (setting [3]). Moreover, the “PI MES, protective index (TD50/ED50)” value in the data set on MES-induced seizures was 9.6. Besides, the “PI scPTZ, protective index (TD50/ED50)” value with PTZ-induced seizures is reported as 12.9. This compound also showed a TD50 at 30 min in data set [2] of 366 mg/kg. Further, the “NT screening (rotarod)” value was 300 mg/kg in data set [1] (0.5 h after injection); “— (A dash indicates the absence of anticonvulsant activity and neurotoxicity at the maximum dose administered (300 mg/kg))” in data set [1] (4 h after injection).

A word on the IC50: it is the concentration at which inhibition is half-maximal. As usually defined, the pKi is the negative decadic logarithm of the Ki, by convention in mol/L. A high value points to a small Ki. As for `CN1C(=O)CN=C(c2ccccc2)c2cc(Cl)ccc21` [Diazepam, reference compound], the ED50 with MES-induced seizures stood at 10.1 mg/kg; with PTZ-induced seizures it was 0.5 mg/kg. Moreover, the concentration for half-maximal inhibition (IC50) on GABAA BZD receptor (competition with 0.5 nM [3H]-flumazenil, 95% CI in brackets) was 1.3 nM. For the same compound, at GABAA BZD receptor (competition with [3H]-flumazenil, Cheng–Prusoff), the pKi was 9.21.

For the compound `CCCC(CCC)C(=O)O` [Valproate, reference compound], the ED50 in the data set with MES-induced seizures (setting [3]) was found to be 264 mg/kg; in the data set with PTZ-induced seizures (setting [3]) it was 149 mg/kg. For the same compound, the “PI MES, protective index (TD50/ED50)” value in the data set with MES-induced seizures amounted to 1.6. Besides, the “PI scPTZ, protective index (TD50/ED50)” value in the data set with PTZ-induced seizures is given as 2.8. Also, the TD50 in data set [1] (rotarod, mice, 95% confidence interval in brackets) is 418 (369–450) mg/kg.
